Measured values from US20240299559A1, “COMPOUNDS THAT MEDIATE PROTEIN DEGRADATION AND METHODS OF USE THEREOF” (Monte Rosa Therapeutics, Inc., priority 2021, published 2024).

What was measured:
CDK2 = target: T1, CDK2 (Homo sapiens, UniProt P24941); assay: CDK2 HiBiT assay (degradation, Dmax); format: cell-based; details: HEK293 clonal lines with CRISPR KI HiBiT tag on CDK2, stably expressing LgBiT; 24 hours incubation
T1 construct: HEK293 clonal lines with CRISPR KI HiBiT tag on CDK2 proteins; host or cells: HEK293 clonal line with CRISPR knock-in HiBiT on CDK2, stably expressing LgBiT
Procedure: HEK293 clonal lines with CRISPR KI HiBiT tag on CDK2 proteins and stably expressing LgBiT protein were obtained from Promega (Madison, WI). Cells were plated at 5000 cells per well using Multiflo (BioTek) in 384-well white solid bottom plates (Corning, 3570BC) in 25 ul volume in DMEM media (DMEM, high glucose, HEPES, no phenol red (ThermoFisher Scientific, 21063029)) containing 10% FBS (Corning, 35-075-CV), 1% Penicillin/Streptomycin (ThermoFisher Scientific, 15140-122). Cells were incubated for 16 hours at 37° C., 5% CO2. 75 nL of a compound at 30 μM were dosed into the plate using an Echo® 650 liquid handler (Labcyte). Cells were incubated at 37° C., 5% CO2 for 24 hours. 5 ul of HiBiT Lysis Reagent (Promega, N3030) is added using Combi Multidrop (ThermoFisher Scientific), plates are incubated for 15′ at 37° C., 5% CO2 and then signal was read on a Pherastar FSX using “LUM plus” optic module.
Analysis was performed in Scinamic (Scinamic, Cambridge, MA). Luminescence response (R) was calculated by the formula: response=100*(S−N)/(P−N) where S is the signal of the well, N and P the mean negative and positive control values respectively of the same plate. The luminescence response was then fitted in Scinamic using a 3-parameter agonist logistic fit (hillslope=1, EC50>0, top/bottom unconstrained).

CRBN-DDB1 = CRBN-DDB1 (Homo sapiens, UniProt Q96SW2); assay: Compound binding to CRBN by HTRF assay; details: CRBN-DDB1 2.5 nM, Cy5-Thalidomide 100 nM probe; Ki from geometric mean of IC50 by Cheng-Prustoff transformation
Sequence of CRBN-DDB1 (Q96SW2 whole entry): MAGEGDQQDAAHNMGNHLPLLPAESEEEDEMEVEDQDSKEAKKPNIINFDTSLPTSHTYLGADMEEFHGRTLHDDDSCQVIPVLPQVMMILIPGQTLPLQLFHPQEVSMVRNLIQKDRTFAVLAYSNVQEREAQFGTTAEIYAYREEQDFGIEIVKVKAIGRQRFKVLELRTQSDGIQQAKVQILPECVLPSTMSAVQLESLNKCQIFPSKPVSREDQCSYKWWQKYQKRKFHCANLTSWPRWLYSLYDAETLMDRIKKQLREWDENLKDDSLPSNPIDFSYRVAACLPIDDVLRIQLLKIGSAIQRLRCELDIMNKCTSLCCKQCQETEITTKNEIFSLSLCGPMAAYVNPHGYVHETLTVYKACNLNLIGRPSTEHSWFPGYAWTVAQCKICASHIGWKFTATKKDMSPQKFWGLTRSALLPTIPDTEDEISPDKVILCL
Sequence of CRBN-DDB1 (Q16531 whole entry partner): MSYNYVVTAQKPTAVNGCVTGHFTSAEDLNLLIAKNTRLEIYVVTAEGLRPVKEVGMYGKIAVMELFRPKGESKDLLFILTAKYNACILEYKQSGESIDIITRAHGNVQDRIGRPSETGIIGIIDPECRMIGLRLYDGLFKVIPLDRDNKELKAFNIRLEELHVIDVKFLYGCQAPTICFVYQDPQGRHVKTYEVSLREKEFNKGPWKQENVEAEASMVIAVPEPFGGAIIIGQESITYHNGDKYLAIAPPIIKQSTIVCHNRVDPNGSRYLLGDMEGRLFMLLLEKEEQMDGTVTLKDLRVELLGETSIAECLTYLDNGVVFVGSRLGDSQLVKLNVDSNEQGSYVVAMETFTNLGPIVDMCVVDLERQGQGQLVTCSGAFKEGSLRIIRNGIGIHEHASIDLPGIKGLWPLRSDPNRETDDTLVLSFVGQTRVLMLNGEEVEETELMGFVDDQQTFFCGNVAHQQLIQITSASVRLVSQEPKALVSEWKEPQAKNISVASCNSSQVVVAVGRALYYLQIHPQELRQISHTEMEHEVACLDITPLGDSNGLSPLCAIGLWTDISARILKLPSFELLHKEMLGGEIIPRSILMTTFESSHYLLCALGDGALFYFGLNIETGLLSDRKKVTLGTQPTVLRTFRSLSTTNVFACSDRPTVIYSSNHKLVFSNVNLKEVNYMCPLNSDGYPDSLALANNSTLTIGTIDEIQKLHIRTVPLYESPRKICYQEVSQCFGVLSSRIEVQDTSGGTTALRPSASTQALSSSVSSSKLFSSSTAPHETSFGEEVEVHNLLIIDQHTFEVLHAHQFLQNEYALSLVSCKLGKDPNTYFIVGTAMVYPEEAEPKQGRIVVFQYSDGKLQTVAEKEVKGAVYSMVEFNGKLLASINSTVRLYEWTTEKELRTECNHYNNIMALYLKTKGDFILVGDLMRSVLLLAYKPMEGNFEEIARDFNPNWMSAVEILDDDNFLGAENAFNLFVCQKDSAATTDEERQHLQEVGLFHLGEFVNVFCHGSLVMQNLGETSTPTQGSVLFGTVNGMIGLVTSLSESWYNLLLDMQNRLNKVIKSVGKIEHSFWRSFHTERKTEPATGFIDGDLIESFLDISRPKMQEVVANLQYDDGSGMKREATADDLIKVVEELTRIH
Procedure: Compound activity was monitored in a Homogenous Time-Resolved Fluorescence (HTRF) assay using 1-[5-({2-[2-(2-{[2-(2,6-dioxopiperidin-3-yl)-1,3-dioxo-2,3-dihydro-1H-isoindol-4-yl]oxy}acetamido)ethoxy]ethyl}carbamoyl)pentyl]-3,3-dimethyl-2-[(1E,3E)-5-[(2E)-1,3,3-trimethyl-5-sulfo-2,3-dihydro-1H-indol-2-ylidene]penta-1,3-dien-1-yl]-3H-indol-1-ium-5-sulfonate as a fluorescent probe. Biochemical assays were conducted in Greiner white 384 well HiBase plates (Cat. No 784075-25) in 10 μL total volume. A one pot detection solution of CRBN-DDB1 (2.5 nM), Anti-His Terbium Cryptate Gold (1×, PerkinElmer Cat. #: 61HI2TLB), and Cy5-Thalidomide (100 nM, Tenova Cat.: T52461) was prepared in 20 mM HEPES, 20 mM NaCl, 0.2 mM TCEP, 0.2 mM EDTA, and 0.005% Tween20 was dispensed to each assay plate. Compounds were stored in dry, ambient temperatures at 10 mM. A 10-point, 1:3 dilution series was prepared from 10 mM stock concentrations in Echo-compatible LDV plates. 10 nL of each compound dilution series was dispensed into assays wells using an Echo 650 (Labcyte inc. USA). 10 nL of 10 mM Lenalidomide was transferred into the active-control wells for the assay and 10 nL of DMSO was transferred into the neutral-control wells. The assay was then allowed to incubate for 30 min at ambient temperature after transferring compound. Plate measurements were taken on a Pherastar FSX (BMG Labtech, Germany) using the HTRF Red filter (Ex. 337 nm, em1:620 nm, em2:665 nm) (Flashes: 50, Integration time: 60-400 us, Z-height: 10 mm, Ratio-multipler: 10,000). The HTRF signal was then subsequently normalized to the neutral and active controls. Analysis and IC50 values were derived using KNIME analytics (KNIME Zurich) transformation and fitting within Collaborative Drug Discovery (Collaborative Drug Discovery USA). Ki was derived from the geometric mean of the IC50 values using the Cheng-Prustoff transformation.

Row | Dmax (CDK2) [%] | Ki (CRBN-DDB1) [nM] | SMILES
1 | ≤ 10 | ≤ 100 | O=C1CCC(N2Cc3ccc(CNC(=O)OCc4ccc(Cl)cc4)cc3C2=O)C(=O)N1 (centres unmarked) [Compound 24, (4-chlorophenyl)methyl N-{[2-(2,6-dioxopiperidin-3-yl)-3-oxo-2,3-dihydro-1H-isoindol-5-yl]methyl}carbamate]
2 | 10 to 50 | ≤ 100 | COc1ccc(COC(=O)NCc2ccc3c(c2)C(=O)N(C2CCC(=O)NC2=O)C3)cc1 (centres unmarked) [Compound 25, (4-methoxyphenyl)methyl N-{[2-(2,6-dioxopiperidin-3-yl)-3-oxo-2,3-dihydro-1H-isoindol-5-yl]methyl}carbamate]
3 | 10 to 50 | 100 to 1000 | O=C1CCC(N2Cc3ccc(CNC(=O)OCc4ccc([N+](=O)[O-])cc4)cc3C2=O)C(=O)N1 (centres unmarked) [Compound 26, (4-nitrophenyl)methyl N-{[2-(2,6-dioxopiperidin-3-yl)-3-oxo-2,3-dihydro-1H-isoindol-5-yl]methyl}carbamate]
4 | ≤ 10 | ≤ 100 | Cc1ccc(COC(=O)NCc2ccc3c(c2)C(=O)N(C2CCC(=O)NC2=O)C3)cc1 (centres unmarked) [Compound 29, (4-methylphenyl)methyl N-{[2-(2,6-dioxopiperidin-3-yl)-3-oxo-2,3-dihydro-1H-isoindol-5-yl]methyl}carbamate]
5 | ≤ 10 | 100 to 1000 | O=C1CCC(N2Cc3ccc(CNC(=O)OCc4cccc([N+](=O)[O-])c4)cc3C2=O)C(=O)N1 (centres unmarked) [Compound 32, (3-nitrophenyl)methyl N-{[2-(2,6-dioxopiperidin-3-yl)-3-oxo-2,3-dihydro-1H-isoindol-5-yl]methyl}carbamate]
6 | 10 to 50 | ≤ 100 | O=C1CCC(N2Cc3ccc(CNC(=O)OCc4ccc(OC(F)F)cc4)cc3C2=O)C(=O)N1 (centres unmarked) [Compound 33, [4-(difluoromethoxy)phenyl]methyl N-{[2-(2,6-dioxopiperidin-3-yl)-3-oxo-2,3-dihydro-1H-isoindol-5-yl]methyl}carbamate]
7 | 10 to 50 | ≤ 100 | CCCc1ccc(COC(=O)NCc2ccc3c(c2)C(=O)N(C2CCC(=O)NC2=O)C3)cc1 (centres unmarked) [Compound 43, (4-propylphenyl)methyl N-{[2-(2,6-dioxopiperidin-3-yl)-3-oxo-2,3-dihydro-1H-isoindol-5-yl]methyl}carbamate]

The next lines start with the molecule.

Row | SMILES | Dmax (CDK2) [%] | Ki (CRBN-DDB1) [nM]
8 | COc1ccc2cc(COC(=O)NCc3ccc4c(c3)C(=O)N(C3CCC(=O)NC3=O)C4)ccc2c1 (centres unmarked) [Compound 28, (6-methoxynaphthalen-2-yl)methyl N-{[2-(2,6-dioxopiperidin-3-yl)-3-oxo-2,3-dihydro-1H-isoindol-5-yl]methyl}carbamate] | ≤ 10 | 100 to 1000
9 | Cc1ccc(COC(=O)NCc2ccc3c(c2)C(=O)N(C2CCC(=O)NC2=O)C3)c(C)c1 (centres unmarked) [Compound 30, (2,4-dimethylphenyl)methyl N-{[2-(2,6-dioxopiperidin-3-yl)-3-oxo-2,3-dihydro-1H-isoindol-5-yl]methyl}carbamate] | 10 to 50 | 100 to 1000
10 | O=C1CCC(N2Cc3ccc(CNC(=O)OCc4cccc(C(F)(F)F)c4)cc3C2=O)C(=O)N1 (centres unmarked) [Compound 31, [3-(trifluoromethyl)phenyl]methyl N-{[2-(2,6-dioxopiperidin-3-yl)-3-oxo-2,3-dihydro-1H-isoindol-5-yl]methyl}carbamate] | 10 to 50 | ≤ 100
11 | CCOc1c(C)cc(COC(=O)NCc2ccc3c(c2)C(=O)N(C2CCC(=O)NC2=O)C3)cc1C (centres unmarked) [Compound 34, (4-ethoxy-3,5-dimethylphenyl)methyl N-{[2-(2,6-dioxopiperidin-3-yl)-3-oxo-2,3-dihydro-1H-isoindol-5-yl]methyl}carbamate] | 10 to 50 | ≤ 100
12 | CSc1cccc(COC(=O)NCc2ccc3c(c2)C(=O)N(C2CCC(=O)NC2=O)C3)c1 (centres unmarked) [Compound 35, [3-(methylsulfanyl)phenyl]methyl N-{[2-(2,6-dioxopiperidin-3-yl)-3-oxo-2,3-dihydro-1H-isoindol-5-yl]methyl}carbamate] | 10 to 50 | ≤ 100
13 | CCC(C)(C)c1ccc(COC(=O)NCc2ccc3c(c2)C(=O)N(C2CCC(=O)NC2=O)C3)cc1 (centres unmarked) [Compound 36, [4-(2-methylbutan-2-yl)phenyl]methyl N-{[2-(2,6-dioxopiperidin-3-yl)-3-oxo-2,3-dihydro-1H-isoindol-5-yl]methyl}carbamate] | 10 to 50 | 100 to 1000
14 | O=C1CCC(N2Cc3ccc(CNC(=O)OCc4ccc(C5CCCC5)cc4)cc3C2=O)C(=O)N1 (centres unmarked) [Compound 37, (4-cyclopentylphenyl)methyl N-{[2-(2,6-dioxopiperidin-3-yl)-3-oxo-2,3-dihydro-1H-isoindol-5-yl]methyl}carbamate] | 10 to 50 | ≤ 100
15 | CC(C)Oc1cccc(COC(=O)NCc2ccc3c(c2)C(=O)N(C2CCC(=O)NC2=O)C3)c1 (centres unmarked) [Compound 38, [3-(propan-2-yloxy)phenyl]methyl N-{[2-(2,6-dioxopiperidin-3-yl)-3-oxo-2,3-dihydro-1H-isoindol-5-yl]methyl}carbamate] | 10 to 50 | 100 to 1000
16 | C#CCOc1ccc(COC(=O)NCc2ccc3c(c2)C(=O)N(C2CCC(=O)NC2=O)C3)cc1 (centres unmarked) [Compound 39, [4-(prop-2-yn-1-yloxy)phenyl]methyl N-{[2-(2,6-dioxopiperidin-3-yl)-3-oxo-2,3-dihydro-1H-isoindol-5-yl]methyl}carbamate] | 10 to 50 | ≤ 100
17 | O=C1CCC(N2Cc3ccc(CNC(=O)OCc4ccc(OCC5CC5)cc4)cc3C2=O)C(=O)N1 (centres unmarked) [Compound 40, [4-(cyclopropylmethoxy)phenyl]methyl N-{[2-(2,6-dioxopiperidin-3-yl)-3-oxo-2,3-dihydro-1H-isoindol-5-yl]methyl}carbamate] | 10 to 50 | ≤ 100
18 | CCOc1ccc(COC(=O)NCc2ccc3c(c2)C(=O)N(C2CCC(=O)NC2=O)C3)c(C)c1 (centres unmarked) [Compound 41, (4-ethoxy-2-methylphenyl)methyl N-{[2-(2,6-dioxopiperidin-3-yl)-3-oxo-2,3-dihydro-1H-isoindol-5-yl]methyl}carbamate] | 10 to 50 | 100 to 1000
19 | O=C1CCC(N2Cc3ccc(CNC(=O)OCc4ccc(CC(F)(F)F)cc4)cc3C2=O)C(=O)N1 (centres unmarked) [Compound 42, [4-(2,2,2-trifluoroethyl)phenyl]methyl N-{[2-(2,6-dioxopiperidin-3-yl)-3-oxo-2,3-dihydro-1H-isoindol-5-yl]methyl}carbamate] | 10 to 50 | ≤ 100
20 | COc1cc(COC(=O)NCc2ccc3c(c2)C(=O)N(C2CCC(=O)NC2=O)C3)ccc1F (centres unmarked) [Compound 44, (4-fluoro-3-methoxyphenyl)methyl N-{[2-(2,6-dioxopiperidin-3-yl)-3-oxo-2,3-dihydro-1H-isoindol-5-yl]methyl}carbamate] | 10 to 50 | ≤ 100
21 | CC(C)(C)c1cccc(COC(=O)NCc2ccc3c(c2)C(=O)N(C2CCC(=O)NC2=O)C3)c1 (centres unmarked) [Compound 45, (3-tert-butylphenyl)methyl N-{[2-(2,6-dioxopiperidin-3-yl)-3-oxo-2,3-dihydro-1H-isoindol-5-yl]methyl}carbamate] | 10 to 50 | ≤ 100
22 | CC(C)COc1ccc(COC(=O)NCc2ccc3c(c2)C(=O)N(C2CCC(=O)NC2=O)C3)cc1 (centres unmarked) [Compound 46, [4-(2-methylpropoxy)phenyl]methyl N-{[2-(2,6-dioxopiperidin-3-yl)-3-oxo-2,3-dihydro-1H-isoindol-5-yl]methyl}carbamate] | 10 to 50 | 100 to 1000
